Experimental data from the supplement of paper PMC10307832.

Experiments:
Assay in all cases: relative viability (nuclei count vs DMSO), 5 days (fraction); higher = more cells survive
NCI-H1299 = system: NCI-H1299
Outline: (§1)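 Cells from lung cancer lines were seeded into 1536-well plates and, one day later, dosed by pin tool. Treatments were either a single drug or a fixed dose of an anchor drug with five library-drug doses (not always all listed) in √10 steps. After 5 days, nuclei were stained in a one-step fixation (final 0.05% Triton X-100, 1% formaldehyde, 1 ug/ml Hoechst) and counted on 4× images, and relative viability is the treated-to-vehicle nuclei ratio, as the median of duplicate plates.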

NCI-H1703 = system: NCI-H1703
Outline: as §1

LK-2 = system: LK-2
Outline: as §1

Calu-6 = system: Calu-6
Outline: as §1

IA-LM = system: IA-LM
Outline: as §1

NCI-H1648 = system: NCI-H1648
Outline: as §1

CAL-12T = system: CAL-12T
Outline: as §1

NCI-H1650 = system: NCI-H1650
Outline: as §1

A549 = system: A549
Outline: as §1

NCI-H522 = system: NCI-H522
Outline: as §1

EBC-1 = system: EBC-1
Outline: as §1

With `CC1(C)CCC(c2ccc(Cl)cc2)=C(CN2CCN(c3ccc(C(=O)NS(=O)(=O)c4ccc(N[C@H](CCN5CCOCC5)CSc5ccccc5)c(S(=O)(=O)C(F)(F)F)c4)cc3)CC2)C1` [Navitoclax] + O=C(c1cc(Cc2n[nH]c(=O)c3ccccc23)ccc1F)N1CCN(C(=O)C2CC2)CC1 [Olaparib] (partner 8 µM) the relative viability (NCI-H1299; first compound 0.005 µM) was 0.943, the relative viability (NCI-H1299; first compound 0.01581 µM) was 1 and the relative viability (NCI-H1299; first compound 0.05 µM) was 0.949. For the same compound, the relative viability (NCI-H1299; first compound 0.1581 µM) was 0.977, the relative viability (NCI-H1299; first compound 0.5 µM) was 0.956 and the relative viability (NCI-H1703; first compound 0.005 µM) was 0.536. The relative viability (NCI-H1703; first compound 0.01581 µM) was 0.626, the relative viability (NCI-H1703; first compound 0.05 µM) was 0.508 and the relative viability (NCI-H1703; first compound 0.1581 µM) was 0.512. For the same compound, the relative viability (NCI-H1703; first compound 0.5 µM) was 0.536, the relative viability (LK-2; first compound 0.005 µM) was 0.797 and the relative viability (LK-2; first compound 0.01581 µM) was 0.744. For the same compound, the relative viability (LK-2; first compound 0.05 µM) was 0.618, the relative viability (LK-2; first compound 0.1581 µM) was 0.726 and the relative viability (LK-2; first compound 0.5 µM) was 0.798. It also gave a relative viability (Calu-6; first compound 0.005 µM) of 0.57, a relative viability (Calu-6; first compound 0.01581 µM) of 0.518 and a relative viability (Calu-6; first compound 0.05 µM) of 0.558. The relative viability (Calu-6; first compound 0.1581 µM) was 0.457, the relative viability (Calu-6; first compound 0.5 µM) was 0.478 and the relative viability (IA-LM; first compound 0.005 µM) was 0.814. The relative viability (IA-LM; first compound 0.01581 µM) was 0.836, the relative viability (IA-LM; first compound 0.05 µM) was 0.792 and the relative viability (IA-LM; first compound 0.1581 µM) was 0.789. For the same compound, the relative viability (IA-LM; first compound 0.5 µM) was 0.866, the relative viability (NCI-H1648; first compound 0.005 µM) was 0.632 and the relative viability (NCI-H1648; first compound 0.01581 µM) was 1.06. It also gave a relative viability (NCI-H1648; first compound 0.1581 µM) of 0.922, a relative viability (NCI-H1648; first compound 0.5 µM) of 1.03 and a relative viability (CAL-12T; first compound 0.005 µM) of 0.715. For the same compound, the relative viability (CAL-12T; first compound 0.01581 µM) was 0.651, the relative viability (CAL-12T; first compound 0.05 µM) was 0.674 and the relative viability (CAL-12T; first compound 0.1581 µM) was 0.75. For the same compound, the relative viability (CAL-12T; first compound 0.5 µM) was 0.791, the relative viability (NCI-H1650; first compound 0.005 µM) was 0.67 and the relative viability (NCI-H1650; first compound 0.01581 µM) was 0.829. It also gave a relative viability (NCI-H1650; first compound 0.05 µM) of 0.803, a relative viability (NCI-H1650; first compound 0.1581 µM) of 0.784 and a relative viability (NCI-H1650; first compound 0.5 µM) of 0.649. For the same compound, the relative viability (A549; first compound 0.005 µM) was 0.37, the relative viability (A549; first compound 0.01581 µM) was 0.33 and the relative viability (A549; first compound 0.05 µM) was 0.119. It also gave a relative viability (A549; first compound 0.1581 µM) of 0.33, a relative viability (A549; first compound 0.5 µM) of 0.302 and a relative viability (NCI-H522; first compound 0.005 µM) of 0.657. For the same compound, the relative viability (NCI-H522; first compound 0.01581 µM) was 0.745, the relative viability (NCI-H522; first compound 0.05 µM) was 0.757 and the relative viability (NCI-H522; first compound 0.1581 µM) was 0.542. It also gave a relative viability (NCI-H522; first compound 0.5 µM) of 0.62, a relative viability (EBC-1; first compound 0.005 µM) of 0.745 and a relative viability (EBC-1; first compound 0.01581 µM) of 0.864. For the same compound, the relative viability (EBC-1; first compound 0.05 µM) was 0.658, the relative viability (EBC-1; first compound 0.1581 µM) was 0.683 and the relative viability (EBC-1; first compound 0.5 µM) was 0.663.

`NC(=O)Nc1cc(-c2cccc(F)c2)sc1C(=O)N[C@H]1CCCNC1` [AZD7762] + Nc1nc2[nH]cc(CCc3ccc(C(=O)N[C@@H](CCC(=O)O)C(=O)O)cc3)c2c(=O)[nH]1 [Pemetrexed] (partner 0.2 µM) showed a relative viability (LK-2; first compound 0.01 µM) of 0.316, a relative viability (LK-2; first compound 0.03162 µM) of 0.358 and a relative viability (LK-2; first compound 0.1 µM) of 0.274. It also gave a relative viability (LK-2; first compound 0.3162 µM) of 0.214, a relative viability (LK-2; first compound 1 µM) of 0.169 and a relative viability (NCI-H1648; first compound 0.01 µM) of 0.644. It also gave a relative viability (NCI-H1648; first compound 0.03162 µM) of 0.646, a relative viability (NCI-H1648; first compound 0.1 µM) of 0.704 and a relative viability (NCI-H1648; first compound 0.3162 µM) of 0.553. For the same compound, the relative viability (NCI-H1648; first compound 1 µM) was 0.631, the relative viability (CAL-12T; first compound 0.01 µM) was 1.16 and the relative viability (CAL-12T; first compound 0.03162 µM) was 0.981. The relative viability (CAL-12T; first compound 0.1 µM) was 1.09, the relative viability (CAL-12T; first compound 0.3162 µM) was 0.612 and the relative viability (CAL-12T; first compound 1 µM) was 0.226. The relative viability (NCI-H1650; first compound 0.01 µM) was 0.333, the relative viability (NCI-H1650; first compound 0.03162 µM) was 0.331 and the relative viability (NCI-H1650; first compound 0.1 µM) was 0.296. For the same compound, the relative viability (NCI-H1650; first compound 0.3162 µM) was 0.252, the relative viability (NCI-H1650; first compound 1 µM) was 0.19 and the relative viability (NCI-H522; first compound 0.01 µM) was 1.03. The relative viability (NCI-H522; first compound 0.03162 µM) was 1.05, the relative viability (NCI-H522; first compound 0.1 µM) was 0.862 and the relative viability (NCI-H522; first compound 0.3162 µM) was 0.943. The relative viability (NCI-H522; first compound 1 µM) was 0.791.

`NC(=O)Nc1cc(-c2cccc(F)c2)sc1C(=O)N[C@H]1CCCNC1` [AZD7762] + CC(=O)Nc1cccc(-n2c(=O)n(C3CC3)c(=O)c3c(Nc4ccc(I)cc4F)n(C)c(=O)c(C)c32)c1 [Trametinib] (partner 0.02 µM) gave a relative viability (LK-2; first compound 0.01 µM) of 0.794, a relative viability (LK-2; first compound 0.03162 µM) of 0.552 and a relative viability (LK-2; first compound 0.1 µM) of 0.845. For the same compound, the relative viability (LK-2; first compound 0.3162 µM) was 0.617, the relative viability (LK-2; first compound 1 µM) was 0.562 and the relative viability (NCI-H1648; first compound 0.01 µM) was 0.506. For the same compound, the relative viability (NCI-H1648; first compound 0.03162 µM) was 0.409, the relative viability (NCI-H1648; first compound 0.1 µM) was 0.513 and the relative viability (NCI-H1648; first compound 0.3162 µM) was 0.446. The relative viability (NCI-H1648; first compound 1 µM) was 0.514, the relative viability (CAL-12T; first compound 0.01 µM) was 0.391 and the relative viability (CAL-12T; first compound 0.03162 µM) was 0.402. It also gave a relative viability (CAL-12T; first compound 0.1 µM) of 0.377, a relative viability (CAL-12T; first compound 0.3162 µM) of 0.325 and a relative viability (CAL-12T; first compound 1 µM) of 0.217. For the same compound, the relative viability (NCI-H1650; first compound 0.01 µM) was 0.65, the relative viability (NCI-H1650; first compound 0.03162 µM) was 0.659 and the relative viability (NCI-H1650; first compound 0.1 µM) was 0.631. For the same compound, the relative viability (NCI-H1650; first compound 0.3162 µM) was 0.532, the relative viability (NCI-H1650; first compound 1 µM) was 0.209 and the relative viability (NCI-H522; first compound 0.01 µM) was 0.666. The relative viability (NCI-H522; first compound 0.03162 µM) was 0.822, the relative viability (NCI-H522; first compound 0.1 µM) was 0.737 and the relative viability (NCI-H522; first compound 0.3162 µM) was 0.812. It also gave a relative viability (NCI-H522; first compound 1 µM) of 0.791.
